# Columns and labels:
# PC-9-luc = assay: CellTiter-Glo anti-proliferation assay, PC-9-luc; assay type: cell-based
# Method: (§1) The anti-proliferation effect of 2 compounds (the compound of formula (I) and temozolomide) in 7 CNS metastasis cell lines (MOLT-4-luc, Nalm-6-luc, NCI-H460-luc, ACHN-luc2, PC-9-luc, H1975-luc, and KM12-luc) was evaluated.
# (§2) The plating of cells and compound treatments are shown below in the plate map (Table 12). One plate was needed for the test of 2 compounds (the compound of formula (I) and temozolomide) in one cell line. The compound of formula (I) was tested from 10 μM, 3-fold serial dilution. Temozolomide was tested from 100 μM, 3-fold serial dilution.
# (§3) All the cell lines were maintained in culture conditions at 37° C. in an atmosphere with 5% CO2 in air. The tumor cells were routinely subcultured. The cells growing in an exponential growth phase were harvested and counted for plating.
# (§4) Cells were counted by haemocytometer with Trypan blue staining. Next, 135 μL of cell suspension were plated into the assay plates according to the plate map and 135 μL of assay medium into the blank wells. The plates were incubated at 37° C., 5% CO2, 95% air and 100% relative humidity overnight.
# (§5) 4.4.4 Compound Plate (10×) Preparation and Compound Treatment • 10× concentrate compound plate preparation: Add 198 μL of assay medium into each well of the V-bottom plate; then transfer 2 μL of the stock compound solution of each concentration from the stock plate. Add 2 μL of DMSO into the Blank and Control wells. Pipette up and down to mix well. This V-plate is designated as the 10× concentrate compound plate. • For day 0 plate, add 15 μL of the DMSO-medium into the Control wells. The final DMSO concentration was 0.1%. Then directly proceed to cell viability assay. • For assay plate, add 15 μL of the compound-medium of each well from the 10× concentrate compound plate into the cells in 96-well assay plate according to the plate map. Add 15 μL of the DMSO-medium into the Blank and Control wells. The final DMSO concentration was 0.1%. • Return the assay plate into incubator and incubate for 6 days.
# (§6) The procedures were performed according to the Promega CellTiter-Glo Luminescent Cell Viability Assay Kit manual (Promega-G7573). • The CellTiter-Glo buffer was thawed and equilibrated to room temperature prior to use. • CellTiter-Glo Substrate was equilibrated to room temperature prior to use. • The entire liquid volume of CellTiter-Glo Buffer was transferred into the amber bottle containing CellTiter-Glo Substrate to reconstitute the lyophilized enzyme/substrate mixture. This forms the CellTiter-Glo Reagent. • The contents were mixed by gently vortexing to obtain a homogeneous solution. • The plate was equilibrated and its contents to room temperature for approximately 30 minutes. 75 μL (equal to the half volume of culture medium present in each well) CellTiter-Glo • Reagent was added in each well. Plates were covered with aluminum foil to protect from light. • The contents were mixed for 2 minutes on an orbital shaker to induce cell lysis. • The plate was incubated at room temperature for 20 minutes to stabilize luminescent signal. • Record luminescence on the 2104 EnVision plate reader.
# (§7) Inhibition rate (IR) of the tested compounds was determined by the following formula: IR (%)=(1−(RLU compound−RLU day0)/(RLU control−RLU day0))*100%. The inhibitions of different dose of compound were calculated in Excel file, and then were used to plot inhibition curves and evaluate related parameters, such as Min (%), Max (%) and GI50. The data were interpreted by GraphPad Prism.
# SK-MEL-31 = assay: Cell viability assay, melanoma cell line SK-MEL-31; assay type: cell-based
# Method: as §5
# as §6, with “This forms the CellTiter-Glo Reagent. • The contents were mixed by gently vortexing to obtain a homogeneous solution. • The plate was equilibrated and its contents to room temperature for approximately 30 minutes. 75 μL (equal to the half volume of culture medium present in each well) CellTiter-Glo • Reagent was added in each well.” left out
# as §7, with “The data were interpreted by GraphPad Prism.” left out
# VCap prostate cancer = assay: Non-castrated VCap prostate cancer model; assay type: in vivo, male CB17/Scid mice
# Method: Compound (I), enzalutamide, and abiraterone were tested in non-castrated VCap prostate cancer model in male CB17/Scid mice.
# All treatment groups reduced mean tumor volume.
# SK-MEL-5 = assay: Cell viability assay, melanoma cell line SK-MEL-5; assay type: cell-based
# Method: as §5
# as §6, with “This forms the CellTiter-Glo Reagent. • The contents were mixed by gently vortexing to obtain a homogeneous solution. • The plate was equilibrated and its contents to room temperature for approximately 30 minutes. 75 μL (equal to the half volume of culture medium present in each well) CellTiter-Glo • Reagent was added in each well.” left out
# as §7, with “The data were interpreted by GraphPad Prism.” left out
# ACHN-luc2 = assay: CellTiter-Glo anti-proliferation assay, ACHN-luc2; assay type: cell-based
# Method: as §1, §2, §3, §4, §5, §6, §7
# [1] = system: 7 CNS metastasis cell lines (MOLT-4-luc, Nalm-6-luc, NCI-H460-luc, ACHN-luc2, PC-9-luc, H1975-luc, KM12-luc); assay: Anti-proliferation assay, 7 CNS metastasis cell lines taken together; assay type: cell-based
# Method: as §1
# The plating of cells and compound treatments are shown below in the plate map (Table 12). One plate was needed for the test of 2 compounds (the compound of formula (I) and temozolomide) in one cell line. The compound of formula (I) was tested from 10 μM, 3-fold serial dilution. Temozolomide was tested from 100 μM, 3-fold serial dilution. […]
# as §6, with “This forms the CellTiter-Glo Reagent. • The contents were mixed by gently vortexing to obtain a homogeneous solution. • The plate was equilibrated and its contents to room temperature for approximately 30 minutes. 75 μL (equal to the half volume of culture medium present in each well) CellTiter-Glo • Reagent was added in each well.” left out, “reader. […]” for “reader.”
# Nalm-6-luc = assay: CellTiter-Glo anti-proliferation assay, Nalm-6-luc; assay type: cell-based
# Method: as §1, §2, §3, §4, §5, §6, §7
# SK-MEL-24 = assay: Cell viability assay, melanoma cell line SK-MEL-24; assay type: cell-based
# Method: as §5
# as §6, with “This forms the CellTiter-Glo Reagent. • The contents were mixed by gently vortexing to obtain a homogeneous solution. • The plate was equilibrated and its contents to room temperature for approximately 30 minutes. 75 μL (equal to the half volume of culture medium present in each well) CellTiter-Glo • Reagent was added in each well.” left out
# as §7, with “The data were interpreted by GraphPad Prism.” left out
# [2] = 144 h, 6 days incubation, read-out: Absolute GI50
# [3] = inhibition rate, 6 days, Compound (I) from 10 μM, temozolomide from 100 μM, 3-fold, 9 points
compound,measurement,setting,value
"CC(C)N1CCOc2c(F)cc(-c3nc(Nc4ccc(C5CCN(C)CC5)cn4)ncc3F)cc21 [Compound (I), 5-fluoro-4-(8-fluoro-4-isopropyl-3,4-dihydro-2H-benzo[b][1,4]oxazin-6-yl)-N-(5-(1-methylpiperidin-4-yl)pyridin-2-yl)pyrimidin-2-amine]",GI50,PC-9-luc; [2],2.79 µM
same,Max (%),PC-9-luc; [3],116.3%
same,Min (%),PC-9-luc; [3],−13.7%
same,Max (%),SK-MEL-31; inhibition rate,125.31%
same,Min (%),SK-MEL-31; inhibition rate,−0.53%
same,GI50,SK-MEL-31; read-out: Absolute GI50,1.23 µM
same,Tumor volume (mean ± SEM),"VCap prostate cancer; Group 3: Compound (I) 10 mg/kg p.o. QD * 26 days, Day 0",171.8 ± 6 mm^3
same,Tumor volume (mean ± SEM),"VCap prostate cancer; Group 3: Compound (I) 10 mg/kg p.o. QD * 26 days, Day 4",221.9 ± 15.2 mm^3
same,Tumor volume (mean ± SEM),"VCap prostate cancer; Group 3: Compound (I) 10 mg/kg p.o. QD * 26 days, Day 7",260.9 ± 13.8 mm^3
same,Tumor volume (mean ± SEM),"VCap prostate cancer; Group 3: Compound (I) 10 mg/kg p.o. QD * 26 days, Day 11",310.5 ± 19.9 mm^3
same,Tumor volume (mean ± SEM),"VCap prostate cancer; Group 3: Compound (I) 10 mg/kg p.o. QD * 26 days, Day 14",381.2 ± 15.4 mm^3
same,Tumor volume (mean ± SEM),"VCap prostate cancer; Group 3: Compound (I) 10 mg/kg p.o. QD * 26 days, Day 18",420.6 ± 20.2 mm^3
same,Tumor volume (mean ± SEM),"VCap prostate cancer; Group 3: Compound (I) 10 mg/kg p.o. QD * 26 days, Day 21",514.2 ± 16.5 mm^3
same,Tumor volume (mean ± SEM),"VCap prostate cancer; Group 3: Compound (I) 10 mg/kg p.o. QD * 26 days, Day 25",596.9 ± 22.9 mm^3
same,Tumor volume (mean ± SEM),"VCap prostate cancer; Group 4: Compound (I) 30 mg/kg p.o. QD * 26 days, Day 0",171.7 ± 6.1 mm^3
same,Tumor volume (mean ± SEM),"VCap prostate cancer; Group 4: Compound (I) 30 mg/kg p.o. QD * 26 days, Day 4",218.9 ± 14.4 mm^3
same,Tumor volume (mean ± SEM),"VCap prostate cancer; Group 4: Compound (I) 30 mg/kg p.o. QD * 26 days, Day 7",233.4 ± 16.4 mm^3
same,Tumor volume (mean ± SEM),"VCap prostate cancer; Group 4: Compound (I) 30 mg/kg p.o. QD * 26 days, Day 11",253.7 ± 20.6 mm^3
same,Tumor volume (mean ± SEM),"VCap prostate cancer; Group 4: Compound (I) 30 mg/kg p.o. QD * 26 days, Day 14",279.1 ± 23.6 mm^3
same,Tumor volume (mean ± SEM),"VCap prostate cancer; Group 4: Compound (I) 30 mg/kg p.o. QD * 26 days, Day 18",259.2 ± 23.5 mm^3
same,Tumor volume (mean ± SEM),"VCap prostate cancer; Group 4: Compound (I) 30 mg/kg p.o. QD * 26 days, Day 21",235.9 ± 18.3 mm^3
same,Tumor volume (mean ± SEM),"VCap prostate cancer; Group 4: Compound (I) 30 mg/kg p.o. QD * 26 days, Day 25",232.9 ± 21.3 mm^3
same,Antitumor effect,"VCap prostate cancer; compound (I) 30 mg/kg PO QD, enzalutamide 20 mg/kg PO QD",greatest inhibition of tumor growth
same,GI50,"SK-MEL-5; Homo sapiens, SK-MEL-5, read-out: Absolute GI50",1.24 µM
same,Max (%),SK-MEL-5; inhibition rate,116.12%
same,Min (%),SK-MEL-5; inhibition rate,−2.91%
same,GI50,"ACHN-luc2; ACHN-luc2, 144 h, 6 days incubation, read-out: Absolute GI50",0.047 µM
same,Max (%),ACHN-luc2; [3],102.9%
same,Min (%),ACHN-luc2; [3],6.0%
same,Inhibitory effect in cell viability assay,[1]; current testing concentrations,significant inhibitory effect
same,GI50,"[1]; read-out: Absolute GI50 values, range over 7 cell lines",0.047 to 2.79 µM
same,GI50,Nalm-6-luc; [2],0.154 µM
same,Max (%),Nalm-6-luc; [3],105.6%
same,Min (%),Nalm-6-luc; [3],−20.8%
same,GI50,"SK-MEL-24; Homo sapiens, SK-MEL-24, read-out: Absolute GI50",0.151 µM
same,Max (%),SK-MEL-24; inhibition rate,113.43%
same,Min (%),SK-MEL-24; inhibition rate,1.36%

# Source: patent US20230000876A1, “TREATING CANCERS WITH A CYCLIN-DEPENDENT KINASE INHIBITOR” (Nuvation Bio Inc., priority 2021, published 2023)
